Our source for the T/C values is PubChem BioAssay AID330 (DTP/NCI, 2004).

“And” between values parts separate entries of the source, which are not always exact repeats. Identical values can stand only once. Toxic doses and inconclusive results are not listed. Square brackets hold non-standard residues; d marks the D form. Peptide text beside a SMILES is read from it. ξ: configuration not given here. ξPhe(4-N(CH2CH2Cl)2) = NC(Cc1ccc(N(CCCl)CCCl)cc1)C(=O)O

The experiment relates to P388 leukemia ip, CD2F1 mice, survival T/C. The experiment in a line: NCI In Vivo Anticancer Drug Screen. Data for tumor model P388 Leukemia (intraperitoneal) in CD2F1 (CDF1) mice. The following applies: endpoint: median survival time, higher = longer survival. Put shortly: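 Mice carrying the transplanted tumor received test compound or vehicle. Survival was recorded in each group, and the value is the treated-group measurement divided by that of the vehicle-treated control group.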

Setting [1] is: dose: 50.0 mg/kg/injection, schedule: Q01DX009 (ip), vehicle: saline with Tween-80.
[2] abbreviates: dose: 100.0 mg/kg/injection, schedule: Q01DX009 (ip), vehicle: saline with Tween-80.
Setting [3] is: dose: 100.0 mg/kg/injection, schedule: Q01DX001 (ip), vehicle: Klucel (hydroxypropylcellulose) (HPC).
Setting [4] is: dose: 200.0 mg/kg/injection, schedule: Q01DX001 (ip), vehicle: Klucel (hydroxypropylcellulose) (HPC).
Where [5] appears, read: dose: 100.0 mg/kg/injection, schedule: Q04DX002 (ip), vehicle: Klucel (hydroxypropylcellulose) (HPC).
The mark [6] stands for this setting: dose: 200.0 mg/kg/injection, schedule: Q04DX002 (ip), vehicle: Klucel (hydroxypropylcellulose) (HPC).
Where [7] appears, read: dose: 400.0 mg/kg/injection, schedule: Q04DX002 (ip), vehicle: Klucel (hydroxypropylcellulose) (HPC).
Setting [8] is: dose: 50.0 mg/kg/injection, schedule: Q01DX005 (ip), vehicle: saline with Tween-80.
Where [9] appears, read: dose: 100.0 mg/kg/injection, schedule: Q01DX005 (ip), vehicle: saline with Tween-80.
[10] abbreviates: dose: 200.0 mg/kg/injection, schedule: Q01DX005 (ip), vehicle: saline with Tween-80.
Where [11] appears, read: dose: 60.0 mg/kg/injection, schedule: Q01DX005 (ip), vehicle: saline with Tween-80.
Setting [12] is: dose: 120.0 mg/kg/injection, schedule: Q01DX005 (ip), vehicle: saline with Tween-80.
Setting [13] is: dose: 240.0 mg/kg/injection, schedule: Q01DX005 (ip), vehicle: saline with Tween-80.
Setting [14] is: dose: 50.0 mg/kg/injection, schedule: Q01DX009 (ip), vehicle: Klucel (hydroxypropylcellulose) (HPC).
Where [15] appears, read: dose: 100.0 mg/kg/injection, schedule: Q01DX009 (ip), vehicle: Klucel (hydroxypropylcellulose) (HPC).
The mark [16] stands for this setting: dose: 200.0 mg/kg/injection, schedule: Q01DX009 (ip), vehicle: Klucel (hydroxypropylcellulose) (HPC).
Setting [17] is: dose: 6.25 mg/kg/injection, schedule: Q01DX005 (ip), vehicle: saline with Tween-80.
[18] abbreviates: dose: 12.5 mg/kg/injection, schedule: Q01DX005 (ip), vehicle: saline with Tween-80.
Setting [19] is: dose: 25.0 mg/kg/injection, schedule: Q01DX005 (ip), vehicle: saline with Tween-80.
Setting [20] is: dose: 100.0 mg/kg/injection, schedule: Q01DX001 (ip), vehicle: saline with Tween-80.
Setting [21] is: dose: 200.0 mg/kg/injection, schedule: Q01DX001 (ip), vehicle: saline with Tween-80.
[22] abbreviates: dose: 100.0 mg/kg/injection, schedule: Q04DX002 (ip), vehicle: saline with Tween-80.
Setting [23] is: dose: 200.0 mg/kg/injection, schedule: Q04DX002 (ip), vehicle: saline with Tween-80.

As to `C/C=C1\CN(C)CCC23C(=O)CC1C1COC(O)C(=O)N(c4ccccc42)C13` (stereo unspecified), the T/C reads like this: (dose: 1.0 mg/kg/injection, schedule: Q01DX009 (ip), vehicle: Klucel (hydroxypropylcellulose) (HPC)) 103 % of control; (dose: 2.0 mg/kg/injection, schedule: Q01DX009 (ip), vehicle: Klucel (hydroxypropylcellulose) (HPC)) 110 % of control; (dose: 4.0 mg/kg/injection, schedule: Q01DX009 (ip), vehicle: Klucel (hydroxypropylcellulose) (HPC)) 118 % of control; (dose: 5.0 mg/kg/injection, schedule: Q01DX009 (ip), vehicle: saline) 97 % of control; (dose: 8.0 mg/kg/injection, schedule: Q01DX009 (ip), vehicle: Klucel (hydroxypropylcellulose) (HPC)) 101 % of control; (dose: 10.0 mg/kg/injection, schedule: Q01DX009 (ip), vehicle: saline) 99 % of control. Moreover, the T/C by setting is: (dose: 16.0 mg/kg/injection, schedule: Q01DX009 (ip), vehicle: Klucel (hydroxypropylcellulose) (HPC)) 110 % of control; (dose: 20.0 mg/kg/injection, schedule: Q01DX009 (ip), vehicle: saline) 101 % of control.

In the case of `Cc1ccc(-c2nc3scc(C)n3n2)cc1`, the T/C reads like this: (dose: 60.0 mg/kg/injection, schedule: Q01DX005 (ip), vehicle: Klucel (hydroxypropylcellulose) (HPC)) 100 % of control; (dose: 120.0 mg/kg/injection, schedule: Q01DX005 (ip), vehicle: Klucel (hydroxypropylcellulose) (HPC)) 96 % of control; (dose: 240.0 mg/kg/injection, schedule: Q01DX005 (ip), vehicle: Klucel (hydroxypropylcellulose) (HPC)) 103 % of control.

With `Oc1ccc(SCc2ccc(NCc3ccccc3)cc2)cc1`, the T/C is 113 % of control and 117 % of control under setting [1]; 119 % of control under setting [2].

In the case of `O=c1[nH]cc(-c2ccccc2)c(=O)[nH]1`, the T/C was 100 % of control under setting [3]; 98 % of control under setting [4]; 96 % of control (dose: 400.0 mg/kg/injection, schedule: Q01DX001 (ip), vehicle: Klucel (hydroxypropylcellulose) (HPC)).

Turning to `O=c1c(CO)c(-c2ccccc2)oc2ccccc12`, the T/C under setting [5] was 115 % of control, the T/C under setting [6] was 98 % of control and the T/C under setting [7] was 101 % of control.

Regarding `CCOc1ccccc1NC(=O)CC(=O)N1N=C(c2ccccc2)C(N=Nc2ccc(S(N)(=O)=O)cc2)C1=O` (stereo unspecified), the T/C runs as follows: under setting [8], 110 % of control; under setting [9], 102 % of control; under setting [10], 102 % of control.

As to `O=c1[nH]cnc2nc(N3CCN(c4ccccc4)CC3)sc12`, the T/C under setting [11] was 87 % of control, the T/C under setting [12] is 87 % of control and the T/C under setting [13] is 87 % of control.

For `Cc1nn(-c2nc(-c3ccc(Br)cc3)cs2)c(C)c1C`, the T/C runs as follows: under setting [14], 105 % of control; under setting [15], 106 % of control; under setting [16], 105 % of control.

For `CC(C)NC(=O)c1ccc(N/N=[N+](/C)[O-])cc1`, the T/C is, setting by setting: under setting [17], 97 % of control; under setting [18], 99 % of control; under setting [19], 98 % of control; under setting [8], 92 % of control; under setting [9], 102 % of control.

For `CCOC(=O)C(Cc1ccc(N(CCCl)CCCl)cc1)NC(=O)C(Cc1ccccc1)NC(=O)C(NC(=O)CNC(=O)C1CCCN1)C(C)C` (stereo unspecified) (H-PGVF[ξPhe(4-N(CH2CH2Cl)2)]-OEt; configuration not given here), the T/C (dose: 10.0 mg/kg/injection, schedule: Q04DX003 (ip), vehicle: water) is 150 % of control; the T/C (dose: 20.0 mg/kg/injection, schedule: Q04DX003 (ip), vehicle: water) is 173 % of control; the T/C (dose: 40.0 mg/kg/injection, schedule: Q04DX003 (ip), vehicle: water) is 193 % of control.

In the case of `C/C(=N\N=c1\sc2ccccc2n1CC(=O)O)c1ccccc1`, the T/C runs as follows: under setting [20], 97 % of control; under setting [21], 89 % of control.

Turning to `N#CCSCC(=O)c1ccccc1`, the T/C is 105 % of control under setting [8], 105 % of control under setting [9] and 112 % of control under setting [10].

Take `O=C1c2cc3cc4ccccc4cc3cc2C(=O)c2c(O)ccc(O)c21`: the T/C (dose: 50.0 mg/kg/injection, schedule: Q04DX002 (ip), vehicle: saline with Tween-80) is 90 % of control; the T/C under setting [22] is 91 % of control; the T/C under setting [23] was 99 % of control.

As for `CC(=O)NS(=O)(=O)c1ccc(N=NC2C(=O)N(C(=O)c3ccccc3)N=C2C)cc1` (stereo unspecified), the T/C was 93 % of control (dose: 50.0 mg/kg/injection, schedule: Q01DX001 (ip), vehicle: Klucel (hydroxypropylcellulose) (HPC)); 95 % of control under setting [3]; 93 % of control under setting [4].

`CC(C)c1nnc2cc3oc4ccccc4c3cc2c1N`: the T/C under setting [17] was 100 % of control, the T/C under setting [18] was 96 % of control, the T/C under setting [19] was 106 % of control and the T/C under setting [8] was 106 % of control.

`CC1(C)N=C(N)N=C(N)N1c1cccc(CCC(=O)Nc2ccc(S(=O)(=O)F)cc2)c1`: the T/C reads like this: (dose: 18.8 mg/kg/injection, schedule: Q01DX009 (ip), vehicle: saline with Tween-80) 116 % of control and 118 % of control; (dose: 37.5 mg/kg/injection, schedule: Q01DX009 (ip), vehicle: saline with Tween-80) 115 % of control and 118 % of control; (dose: 150.0 mg/kg/injection, schedule: Q01DX009 (ip), vehicle: saline with Tween-80) 107 % of control.

With `CCCn1c(C)nc2c(N)cc(C(F)(F)F)cc21`, the T/C runs as follows: under setting [22], 105 % of control; under setting [23], 100 % of control; (dose: 400.0 mg/kg/injection, schedule: Q04DX002 (ip), vehicle: saline with Tween-80) 95 % of control.

`CCC1COS(=O)(=O)CS(=O)(=O)O1` (stereo unspecified): the T/C under setting [11] was 101 % of control, the T/C under setting [12] is 100 % of control and the T/C under setting [13] is 105 % of control.

Take `O=C1CC2(CCCC2)C(=O)N1c1ccccc1O`: the T/C was 103 % of control (dose: 25.0 mg/kg/injection, schedule: Q01DX009 (ip), vehicle: saline); 118 % of control and 94 % of control under setting [14]; 96 % of control (dose: 50.0 mg/kg/injection, schedule: Q01DX009 (ip), vehicle: saline); 100 % of control under setting [15]; 96 % of control (dose: 100.0 mg/kg/injection, schedule: Q01DX009 (ip), vehicle: saline); 100 % of control under setting [16]. Moreover, the T/C (dose: 200.0 mg/kg/injection, schedule: Q01DX009 (ip), vehicle: saline) is 96 % of control.

Consider `Cn1c(=O)oc2ccc(Br)cc21`, for which the T/C is 104 % of control under setting [5], 104 % of control under setting [6] and 100 % of control under setting [7].

`CCCOC(=O)/C=C/C(=O)N1CC(C)N(C(=O)/C=C/C(=O)OCCC)CC1C` (stereo unspecified): the T/C reads like this: (dose: 50.0 mg/kg/injection, schedule: Q01DX005 (ip), vehicle: Klucel (hydroxypropylcellulose) (HPC)) 109 % of control; (dose: 100.0 mg/kg/injection, schedule: Q01DX005 (ip), vehicle: Klucel (hydroxypropylcellulose) (HPC)) 98 % of control; (dose: 200.0 mg/kg/injection, schedule: Q01DX005 (ip), vehicle: Klucel (hydroxypropylcellulose) (HPC)) 98 % of control.

In the case of `CSC(=S)N/N=C(/C)c1ccco1`, the T/C under setting [1] is 105 % of control and the T/C under setting [2] was 95 % of control.

As for `Cc1cc(O)c(C(c2ccccc2)c2c(O)cc(C)[nH]c2=O)c(=O)[nH]1`, the T/C was 90 % of control (dose: 25.0 mg/kg/injection, schedule: Q01DX009 (ip), vehicle: saline with Tween-80); 91 % of control under setting [1]; 86 % of control under setting [2].

With `Cc1ccc(/C=N/N=c2/sc3ccccc3n2CC(=O)O)cc1`, the T/C by setting is: under setting [20], 98 % of control; under setting [21], 92 % of control; (dose: 400.0 mg/kg/injection, schedule: Q01DX001 (ip), vehicle: saline with Tween-80) 89 % of control.
